The nature of series [1]: Stability and degradability of biogels in human plasma (Example 8). The series is classed as in vitro ADME. The conditions noted are these: human plasma, 37° C. The protocol:
After centrifugation at 14 000 rpm for 15 minutes, 100 μL supernatant was diluted with 100 μL milliQ water in the injection vial. Injection samples were vortexed for 5 seconds and were analyzed by HPLC. […] Calculations were performed using Microsoft® Office Professional 2010 Excel.

In the next series the test system is Male CD1 mice. As to the kind of experiment: Radiant heat tail-flick test of biogel compositions s.c. (in solution or as a gel). The conditions noted are these: injection volume of 150 μl. The format is in vivo, mouse. The protocol: Male CD1 mice (6-8 weeks old, body weight average 30 g) were obtained from Charles River (Sulzfeld, Germany). Mice were group-housed in a temperature controlled room with a 12 h light/dark cycle and with free access to food and water. All animal studies were conducted in accordance with ethical guidelines and animal welfare standards according to Austrian regulations for animal research, and were approved by the Committee of Animal Care of the Austrian Federal Ministry of Science and Research. […]
The radiant heat tail-flick test was used to assess antinociceptive effects of tested drugs after s.c. administration in mice using an UB 37360 Ugo Basile analgesiometer (Ugo Basile s.r.l., Varese, Italy) as described previously (A. Novoa et al., 2012). The reaction time required by the mouse to remove its tail due to the radiant heat was measured and defined as the tail-flick latency. […] The antinociceptive response was expressed as percent of Maximum Possible Effect (% MPE)=[(TL-BL)/(cut-off time-BL)]×100. Data were analyzed with ANOVA using Tukey's multiple comparison test, and graphically processed with the GraphPad Prism Software (GraphPad Software Inc., San Diego, CA). […]

The nature of series [2]: TEM / cryo-TEM fibre morphology of hydrogels. The series is classed as physicochemical. The protocol:
Formvar carbon-coated 400-mesh copper grids (Agar Scientific, Stansted, United Kingdom) were treated with plasma using an ELMO Glow discharge system to clean the grid surface and to render the carbon surface hydrophilic. Hydrogel samples were prepared 12 h in advance as described above. Small aliquots of sample (5 μL) were pipetted onto the carbon grids for adsorption. After 30 s, excess of sample was removed by using a Whatman 541 filter paper. The loaded grids were stained during 10 s with 1% uranyl formate after which the grids were air-dried. Samples were analysed using a JEOL JEM-1400 transmission electron microscope, operating at accelerating voltage of 120 kV. Images were recorded on a CMOS TemCam-F416 camera and accessory software of TVIPS.
200-mesh copper grids coated with perforated carbon film (Lacey carbon film: ProSci-Tech Old, Australia) were used and were glow discharged in nitrogen for 5 s immediately prior to use. Hydrogel samples were prepared 12 h in advance as described above. Small aliquots of sample (4 μL) were pipetted onto the carbon grids for adsorption. After 30 s, excess of sample was removed by using a Whatman 541 filter paper. The grid was then plunged into liquid ethane cooled by liquid nitrogen. Frozen grids were stored in liquid nitrogen until required. Samples were analysed using a Gatan 626 cryoholder and Tecnai 12 Transmission electron microscope, operating at accelerating voltage of 120 kV. Images were recorded using an FEI Eagle 4k×4k CCD camera.

A short description of series [3]: Peptide gelation (tilted tube / inverted vial test, minimum gelation concentration). The settings on record: for Minimum gelation concentration: PBS 10 mM; for Minimum gelation concentration (w/v % in PBS): '/' = no gel. The series is classed as physicochemical. A digest of the protocol: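 TFA salt of peptide dissolved (1 or 2 mg per 100 μL) in PBS pH 7.4 or 0.9% NaCl saline, vortexed and sonicated, then left overnight at room temperature. Gelation judged by inverted vial test: no gravitational flow means gel. Rheology by dynamic rheometry at 37° C (G′, G″, tan δ).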

The nature of series [4]: Dynamic rheometry of hydrogels (storage modulus G′). The series is classed as physicochemical. The conditions noted are these: 2% w/v in PBS, 37° C., value at 1 Hz.
Method: Dynamic rheometry measurements were performed on an AR-G2 rheometer (TA Instruments) equipped with electrically heated plates and a 10 mm-diameter aluminium parallel plate-plate geometry. Viscoelastic properties were measured by oscillatory frequency sweeps at 37° C. in the range between 0.01 and 10 Hz, using a controlled strain of 0.05%. Hydrogel samples were made 12 h in advance. A ring-shaped reservoir filled with a saturated NH4Cl solution was used as a solvent trap.
To evaluate the mechanical properties of these hydrogels in a more quantitative manner, rheological experiments were performed. The viscoelastic properties of the peptide hydrogels were measured by dynamic rheometry at 37° C. This technique allowed to measure the storage modulus G′ (corresponding to the material's stiffness or rigidity), loss modulus G″ (corresponding to the viscous properties of the material) and loss factor tan (o) (ratio of G″ over G′).
For series [5] the following is noted: after 4 days of incubation.
Method: Human plasma was obtained from the Belgian Red Cross (Vlaams-Brabant, Leuven). […] Frozen (−20° C.) human plasma samples were thawed and thermostated to 37+2° C. Dissolution of the lyophilized peptide and consecutive dilutions were performed in water. […] On every time point 100 μL spiked plasma was transferred to a 500 μL Eppendorf tube and a protein crash was performed using 300 μL methanol+0.1% TFA (4° C.). Suspensions were vortexed for 15 seconds and placed at 4° C. for 30 to 45 minutes. After centrifugation at 14000 rpm for 20 minutes, 100 μL supernatant was diluted with 100 μL water in the injection vial. Injection samples were vortexed for 5 seconds and placed in the autosampler. […] Concentrations were calculated by use of the calibration curve and transferred to a semi-log chart presenting the log concentrations as a function of time. The optimum curve was used to calculate the peptide-half life. Calculations were performed using Microsoft® Office Professional 2010 Excel.
Series [6] concerns L929 (mouse fibroblast) cells. Description: Live/Dead cell viability assay on hydrogels (Example 5). The series is classed as cell-based. The conditions noted are these: 24 h on hydrogel. The protocol: L929 (mouse fibroblast) cells were obtained from ATCC® and maintained in Gibco®, MEM with GlutaMAX supplemented with 10% FBS (SAFC, Sigma), 1% Anti-Anti (100×, Gibco®) and 1% NEAA (100×, Gibco®). Cells were maintained on tissue culture treated polystyrene (TCPS) plates at 37° C. in a humified atmosphere containing 5% CO2 and 95% air. Cells were trypsinized, harvested and counted using a hemocytometer. The resulting cell suspension was diluted in Gibco® solution before addition to the hydrogels. For ease of handling and to produce homogeneous clear hydrogels, 100 μL of peptide hydrogels were prepared (in corresponding gelation conditions, see above) in Eppendorf tubes (0.5 ml) and transported using a 21G syringe to 96-well plates after simultaneously heating (60° C.) and mixing (900 rpm) using an Eppendorf ThermoMixer®. The hydrogels were left to set overnight in the wells at room temperature and were subsequently washed twice with 200 μL of Anti-Anti (100×, Gibco®) solution, 2 h each. After washing, media was removed and cells were seeded evenly over hydrogels. Cells were plated in duplicate on all hydrogels and control wells. Viability of cells on hydrogels was determined using the traditional Live/dead cell viability assay (Invitrogen) after culture durations of 24 h.
Plates were incubated in 5% CO2 at 37° C. for 1 day to allow cell attachment and spreading to occur. […]

The nature of series [7]: In vivo monitoring of cargo release with SPECT/CT. The arrangement: species or system C57Bl/6J mice. The protocol:
The ^111In-labeled molecules were diluted up to 1 ml with PBS and either used as such, or incorporated within the hydrogel as described below.
Images were reconstructed using a filtered back-projection algorithm.
Images were quantified using the software AMIDE (sourceforge.net).

For series [8] the following is noted: 37° C., 9 μM.
Method: Human plasma was obtained from the Belgian Red Cross (Vlaams-Brabant, Leuven). Prior to the stability test, selectivity, stability of the compound in the injection solvent, linearity, accuracy and precision of the method were investigated. Frozen (−20° C.) human plasma samples were thawed and thermostated to 37±2° C. Dissolution of the lyophilized peptide and consecutive dilutions were performed in water. The resulting aqueous solutions of each peptide individually was spiked in human plasma (10:90 v/v) with final plasma concentrations of 9 μM.
On every time point 100 μL spiked plasma was transferred to a 500 μL Eppendorf tube and a protein crash was performed using the corresponding precipitation solvent (4° C.). Suspensions were vortexed for 15 s and placed at 4° C. for 30 to 45 min. After centrifugation at 18 625 g for 20 min, 100 μL supernatant was diluted with 100 μL water in the injection vial.
Injection samples were vortexed for 5 sand placed in the autosampler. […] Concentrations were calculated by use of the calibration curve and transferred to a semi-log chart presenting the log concentrations as a function of time. The optimum curve was used to calculate the peptide half-life. Calculations were performed using Microsoft® Office Professional 2010 Excel.

Square brackets hold non-standard residues; d marks the D form. Peptide text beside a SMILES is read from it. Dmt = Cc1cc(O)cc(C)c1C[C@H](N)C(=O)O

For the compound `Cc1cc(O)cc(C)c1C[C@H](N)C(=O)N[C@H](CCCNC(=N)N)C(=O)N[C@@H](Cc1ccccc1)C(=O)N[C@@H](Cc1ccccc1)C(=O)N[C@@H](CCC(N)=O)C(=O)N[C@@H](Cc1ccccc1)C(=O)N[C@@H](CCC(N)=O)C(=O)N[C@@H](Cc1ccccc1)C(=O)N[C@@H](CCCCN)C(N)=O` [CM-57, Dmt-DArg-Phe-Phe-Gln-Phe*-Gln-Phe-Lys-NH2] (H-[Dmt][dR]FFQFQFK-NH2; N-terminus assumed), in series [1], the “Time at which degradation of the heptapeptide into the N-terminal pentapeptide started” value is given as 7.5 min, the “Time at which degradation of the pentapeptide into tripeptide was observed” value is 60 min and the “Time of appearance of the heptapeptide (loss of Phe-Lys-NH2)” value turned out to be 2.5 min. Further, the half-life at 14 μM in series [1] (human, in solution, 14 μM) was around 17 min. The “Release profile as biogel in tail-flick test” value in the series with Male CD1 mice is reported as “showed the desired sustained release curve”.

As to `NCCCC[C@@H](NC(=O)[C@@H](Cc1ccccc1)NC(=O)[C@@H](CCC(N)=O)NC(=O)[C@@H](Cc1ccccc1)NC(=O)[C@@H](CCC(=O)O)NC(=O)[C@H](N)Cc1ccccc1)C(N)=O` [peptide 4, H-DPhe-DGlu-DPhe*-DGln-DPhe-DLys-NH2] (H-[dF][dE][dF][dQ][dF][dK]-NH2), the Fibre thickness result in series [2] (TEM, Example 2) is recorded as “ca. 10 nm”. Besides, the Minimum gelation concentration in series [3] (pH 7.4) was 24 mM; in series [3] (pH 7.4 (text, Examples 1-2)), 2 % w/v. Moreover, the “Minimum gelation concentration (w/v % in PBS)” value in series [3] is 3 w/v %. Moreover, in series [4], the “Storage modulus G′” value is recorded as “ca. 1000 Pa”. In addition, the “Stability after incubation with human plasma” value in series [5] was “remained intact”. Moreover, the “Cytotoxicity (Live/Dead cell viability, qualitative)” value in series [6] was “evenly distributed number of red (dead cells) and green (live cells) fluorescent cells”.

On to “DOTA-4-amino-2-cyclohexylmethyl-indolo[3,4-c]azepin-2-on [small molecule 3]”, for which, in series [7] (111In-labeled cargo s.c. in solution, 1 mg/ml), the “Clearance from the injection site” value is “totally cleared within three hours”. Also, in series [7] (co-formulated within hydrogel of peptide 2, s.c.), the Release profile entry is “released in a rather fast manner”.

With `NCCCC[C@@H](N)C(=O)N[C@H](Cc1ccccc1)C(=O)N[C@H](CCC(N)=O)C(=O)N[C@H](Cc1ccccc1)C(=O)N[C@H](CCC(=O)O)C(=O)N[C@H](Cc1ccccc1)C(N)=O` [peptide 24, H-DLys-DPhe-DGln-DPhe*-DGlu-DPhe-NH2] (H-[dK][dF][dQ][dF][dE][dF]-NH2), the “Stability in human plasma” value in [8] is “remains intact after 25 h of incubation”. The compound further registered a Fibre diameter in [2] (cryoTEM and negative staining, Example 9) of around 5 nm. Moreover, the “Minimum gelation concentration (w/v % in PBS)” value in series [3] is 2 w/v %.

The values above are taken from patent publication US12383628B2 (priority 2016, dated 2025).
